What all share (assay type): physicochemical
The nature of series [1]: Salt stability studies, 40° C./75% RH for 1 week, XRPD. On the procedure: Recovered salts were placed in an oven at 40° C./75% RH for 1 week, and the resultant materials were analyzed by XRPD to determine any changes to form or crystallinity.
The nature of series [2]: Thermodynamic solubility of prepared salts. On the procedure:
Thermodynamic solubility studies were carried out as follows: 10 mg of prepared salts were suspended in pH 1, 4.5, 6.8 and un-buffered water (300 μL). The pH of the slurries was measured and adjusted accordingly using either 0.2M HCl solution or 0.2M sodium hydroxide solution. The slurries were agitated for 24 hours at ambient temperature using an incubator shaker.

Series [3] is described as follows: Salt disproportionation studies. Conditions: deionized water, 24 h at ambient temperature. The procedure:
Salt disproportionation studies were carried out as follows: 20 mg of prepared salts were weighed into a vial and 0.5 mL of deionized water was added. The samples were then agitated for 24 h at ambient temperature. The pH of the samples was taken pre- and post-agitation. Any solids recovered were submitted for XRPD analysis to determine any changes to form.

The nature of series [4]: Hydration screen in acetone/water mixtures. To be noted: 24 hr. The procedure: Hydration screen was carried out as follows: 10 mg of prepared salts were suspended in several acetone/water mixtures of various water activities (low: aw=0.281, medium: aw=0.776 and high: aw=0.919) and agitated at ambient temperatures for 24 hr. Any recovered solids were submitted for XRPD analysis to determine any changes to form.

Series [5] in a line: 1-week stability tests (40° C./75% RH, 80° C., ambient light), XRPD and UPLC. An excerpt:
Compound 1 (Form I) was subjected to various different environmental conditions to assess stability.

Series [6] in a line: Dynamic vapor sorption (DVS). To be noted: for Hygroscopicity, mass uptake by DVS: at 90% RH; for Crystalline form by XRPD after exposure to DVS humidity conditions: post-DVS XRPD. On the procedure: Approximately, 10 mg of sample was placed into a mesh vapor sorption balance pan and loaded into a DVS-1 dynamic vapor sorption balance by Surface Measurement Systems. The sample was subjected to a ramping profile from 40-90% relative humidity (RH) at 10% increments, maintaining the sample at each step until a stable weight had been achieved (99.5% step completion). After completion of the sorption cycle, the sample was dried using the same procedure to 0% RH and then a second sorption cycle back to 40% RH. The weight change during the sorption/desorption cycles were plotted, allowing for the hygroscopic nature of the sample to be determined. XRPD analysis was then carried out on any solid retained.

Series [7] in a line: Approximate solvent solubility of amorphous Compound 1 free base by solvent addition (Example 1). Conditions: for solubility: organic solvent or mixture, thermodynamic from solid, read-out: Approx. Solubility. On the procedure: A solid Compound 1 was obtained as follows. A […] of solution containing about 330 mg of Compound 1 in warm 1,4-dioxane was divided between 33, 2 mL glass vials (1.5 mL in each). The solutions were frozen and freeze-dried by lyophilization overnight. The resulting material was then analyzed by XRPD to confirm mostly amorphous material.
Approximately 10 mg of amorphous Compound 1 was produced in 32×2 mL glass vials from freeze drying and 100 μL of the appropriate solvent system was added to the appropriate vial. Between each addition, the mixture was checked for dissolution and if no dissolution was apparent, the mixture was heated to about 40° C. and checked again. This procedure was continued until dissolution was observed or until 2 mL had been added (to the compound concentration of <5 mg/mL).

Series [8] in a line: Gravimetric vapor sorption (GVS). On the procedure: Approximately 10-20 mg of sample was placed into a mesh vapor sorption balance pan and loaded into an IGASorp Moisture Sorption Analyzer balance by Hiden Analytical. […] After completion of the sorption cycle, the sample was dried using the same procedure to 0% RH, and finally taken back to the starting point of 40% RH. The weight change during the sorption/desorption cycles were plotted, allowing for the hygroscopic nature of the sample to be determined.

[9] abbreviates: salt recovered from isopropanol.

SMILES strings stand for the structures. ≈ marks a conversion by molar mass, not a printed value. Entries after “also recorded” stand apart in the source; their conditions may differ. Like-named read-outs stand apart in the source and are kept apart here.

Regarding `C[C@@H]1CCc2ncc(F)cc2[C@H]2CCCN2c2ccn3ncc(c3n2)C(=O)N1.Cc1ccc(S(=O)(=O)O)cc1`, the “Post-stability XRPD: changes to form or crystallinity” value (shortened to “Post-stability XRPD: changes”) in series [1] (salt recovered from acetone) is reported as “become amorphous”.
Regarding `C[C@@H]1CCc2ncc(F)cc2[C@H]2CCCN2c2ccn3ncc(c3n2)C(=O)N1.O=S(=O)(O)c1ccccc1` [Compound 1 besylate], the “Thermodynamic solubility in words” value in series [2] (pH 1) is given as “highly soluble”; in series [2] (pH 4.5) it was “moderately soluble”; in series [2] (pH 6.8) it was “low solubility”; in series [2] (unbuffered water), “moderately soluble”. The “Solid recovered from thermodynamic solubility slurry (XRPD)” value is “an unknown form” in series [2] (pH 4.5), “poorly crystalline free base” in series [2] (pH 6.8) and “poorly crystalline free base” in series [2] (unbuffered water). Also, in series [3], the “Salt disproportionation: recovered material by XRPD” value is recorded as “poorly crystalline free base”. The “Hydration study: recovered solid by XRPD” value in series [4] (high water activity (aw=0.919)) and in series [4] (low water activity (aw=0.281)) was “poorly crystalline besylate salt” throughout. In addition, the “1-week stability test: change to form (XRPD)” value in series [5] (40° C./75% RH) is “appears to be a mixture of besylate salt and something else”; in series [5] (80° C.), “no change to form”; in series [5] (ambient light), “no change to form”. Besides, the “1-week stability test: change in purity (UPLC)” value in series [5] (80° C.) and in series [5] (ambient light) was “no change to purity” in each case. Besides, in series [6], the “Hygroscopicity, mass uptake by DVS” value is “about 0.7%”. Besides, in series [6], the “Crystalline form by XRPD after exposure to DVS humidity conditions” value is “no changes in crystalline form”.
On to `C[C@@H]1CCc2ncc(F)cc2[C@H]2CCCN2c2ccn3ncc(c3n2)C(=O)N1.O=C(O)CC(O)(CC(=O)O)C(=O)O` [Compound 1 citrate Form A], for which the “Hygroscopicity, mass uptake by DVS” value in series [6] is given as “around 1.8%”. Further, the “Post-stability XRPD: changes” value in series [1] (salt recovered from TBME) and in series [1] (salt recovered from acetone) was “a decrease to crystallinity but no change to form” each time.
For `C[C@@H]1CCc2ncc(F)cc2[C@H]2CCCN2c2ccn3ncc(c3n2)C(=O)N1` [Compound 1, (6R,15R)-9-fluoro-15-methyl-2,11,16,20,21,24-hexaazapentacyclo[16.5.2.0^2,6.0^7,12.0^21,25]pentacosa-1(24),7,9,11,18(25),19,22-heptaen-17-one], the solubility (as a rule, the dissolved amount per volume that the medium holds) in series [7] (1,2-Dimethoxyethane) was 8.3 mg/mL (≈ 21.8 mM); in series [7] (1,4-Dioxane), 8.3 mg/mL (≈ 21.8 mM); in series [7] (1-butanol) it was 17 mg/mL (≈ 44.7 mM); in series [7] (2-Ethoxy ethanol) it was 50 mg/mL (≈ 131 mM); in series [7] (2-Propanol) it was 14.3 mg/mL (≈ 37.6 mM); in series [7] (2-butanone) it was 11.1 mg/mL (≈ 29.2 mM). Also, the solubility in series [7] (Acetone) was determined as 11.1 mg/mL (≈ 29.2 mM); in series [7] (Acetonitrile), 12.5 mg/mL (≈ 32.9 mM); in series [7] (Dimethylsulfoxide), 50 mg/mL (≈ 131 mM); in series [7] (Ethanol), 20 mg/mL (≈ 52.6 mM); in series [7] (Methanol) it was 50 mg/mL (≈ 131 mM); in series [7] (Methylisobutyl ketone), 6.25 mg/mL (≈ 16.4 mM). Moreover, the solubility came out at 20 mg/mL (≈ 52.6 mM) in series [7] (Tetrahydrofuran, 40 °C); 11.1 mg/mL (≈ 29.2 mM) in series [7] (anisole); 8.3 mg/mL (≈ 21.8 mM) in series [7] (Diglyme (bis(2-methoxyethyl ether))). Also, the “Solvent solubility in words” value in series [7] (non-polar solvents such as toluene and 1,4-dioxane) was “low solubility”; in series [7] (polar aprotic solvents such as acetone, ethyl acetate and acetonitrile) it was “medium solubility”; in series [7] (polar solvents such as DMSO, DMF and protic solvents such as methanol) it was “high solubility”. The “Crystalline form by XRPD after exposure to GVS humidity conditions” value in series [8] (post-GVS XRPD) is recorded as “no changes to form or crystallinity; also recorded: no changes in crystalline form”. Also, the “1-week stability test: change in purity (UPLC)” value in series [5] (40° C./75% RH), in series [5] (80° C.) and in series [5] (ambient light) was “no change in purity” throughout. For the same compound, the “1-week stability test: change to form (XRPD)” value in series [5] (40° C./75% RH), in series [5] (80° C.) and in series [5] (ambient light) was “no change to form” throughout. The “Average purity after 1-week stability test (UPLC)” value in series [5] (80° C. test) came to 99.3%; in series [5] (ambient light test), 99.2%; in series [5] (relative humidity test (40° C./75% RH)) it was 99.2%. In addition, the “Hygroscopicity, mass uptake by DVS” value in series [6] is on record as “about 0.7%”. In addition, the “Crystalline form by XRPD after exposure to DVS humidity conditions” value in series [6] was “no change in crystalline form”.
Take `C[C@@H]1CCc2ncc(F)cc2[C@H]2CCCN2c2ccn3ncc(c3n2)C(=O)N1` [Form I, (6R,15R)-9-fluoro-15-methyl-2,11,16,20,21,24-hexaazapentacyclo[16.5.2.0^2,6.0^7,12.0^21,25]pentacosa-1(24),7,9,11,18(25),19,22-heptaen-17-one]: in series [8] (at 90% RH), the “Hygroscopicity, mass uptake by GVS” value is reported as “about 0.3%”. Further, the “Hygroscopicity, mass uptake by DVS” value in series [6] is recorded as “about 0.7%”.
Regarding `C[C@@H]1CCc2ncc(F)cc2[C@H]2CCCN2c2ccn3ncc(c3n2)C(=O)N1.O=S(=O)(O)c1ccccc1` [besylate pattern 1], the results for the “Post-stability XRPD: changes” value in series [1] (salt recovered from TBME), in series [1] (salt recovered from THF) and in series [1] (salt recovered from ethanol) were “preferred orientation but no changes to form”, “an increase to crystallinity but no changes to form” and “a decrease in crystallinity”, respectively.
On to `C[C@@H]1CCc2ncc(F)cc2[C@H]2CCCN2c2ccn3ncc(c3n2)C(=O)N1.O=C(O)C[C@H](O)C(=O)O` [crystalline L-malate], for which the “Post-stability XRPD: changes” value in series [1] (salt recovered from TBME) is “no change to crystallinity and form”.
Regarding `C[C@@H]1CCc2ncc(F)cc2[C@H]2CCCN2c2ccn3ncc(c3n2)C(=O)N1.O=C(O)/C=C/C(=O)O` [crystalline fumarate], the “Post-stability XRPD: changes” value in series [1] (salt recovered from acetone) is given as “a slight decrease to crystallinity however, no change to form”.
For the compound `CS(=O)(=O)O.C[C@@H]1CCc2ncc(F)cc2[C@H]2CCCN2c2ccn3ncc(c3n2)C(=O)N1` [crystalline mesylate], the “Post-stability XRPD: changes” value in series [1] (salt recovered from acetone) is reported as “no changes to crystallinity or form”; in series [1] (setting [9]) it was “a slight increase in crystallinity but no changes to form”; in series [1] (salt recovered from methanol) it was “a decrease in crystallinity but no changes to form”.
Regarding `C[C@@H]1CCc2ncc(F)cc2[C@H]2CCCN2c2ccn3ncc(c3n2)C(=O)N1.O=C(O)CCC(=O)O` [crystalline succinate], the “Post-stability XRPD: changes” value in series [1] (salt recovered from acetone) is “a decrease in crystallinity but no change to form”.
For `C[C@@H]1CCc2ncc(F)cc2[C@H]2CCCN2c2ccn3ncc(c3n2)C(=O)N1` [edisylate], the “Post-stability XRPD: changes” value in series [1] (setting [9]) is recorded as “become amorphous”.
For `C[C@@H]1CCc2ncc(F)cc2[C@H]2CCCN2c2ccn3ncc(c3n2)C(=O)N1.O=C(O)C(=O)O` [oxalate], the “Post-stability XRPD: changes” value in series [1] (salt recovered from ethanol) was “a change in crystallinity and form”; in series [1] (salt recovered from methanol), “no change to crystallinity however, changes to form were seen”.

For the origin of these results see patent US11091486B2, “Process for the preparation of pyrazolo[1,5-a]pyrimidines and salts thereof” (Array BioPharma Inc., priority 2016, dated 2021).
